Reference: patent US20220339135A1, “COMPOSITIONS AND METHODS FOR MODULATING AN INFLAMMATORY RESPONSE” (Enzychem Lifesciences Corporation, priority 2019, published 2022)
Entries after “also recorded” stand apart in the source; their conditions may differ.

Experiments:
[1] = test system: Pseudomonas aeruginosa (PAK) in BALF; assay: PAK infection of mice, CFU determination in BALF; assay type: in vivo; details: PAK-induced pneumonia mice, BALF 2 hours after infection
Experimental: Pseudomonas aeruginosa (PAK) was grown overnight in LB broth at 37° C. with agitation, and then harvested by centrifugation at 13,000×g for 2 min. The pellet was diluted to yield 1×10^5 colony-forming unit (CFU) per 20 μL of phosphate-buffered saline (PBS) as determined by the optical density at 600 nm. The diluted bacteria were administered to BALB/c mice by intranasal injections. Bronchoalveolar lavage fluid (BALF) samples were then collected 2 hours after infection and serially diluted 1:1,000-1:10,000 with PBS and incubated overnight at 37° C. on LB agar plates. The number of viable bacteria in BALF samples were determined by counting the numbers of colonies formed on the plates.

[2] = test system: STZ-induced hepatic steatosis; assay: STZ-induced mice model (lipid uptake, hepatic steatosis); assay type: in vivo; details: for body weight versus STZ treated mice / hepatic steatosis / liver damage (histology): co-treated 3 days
Description: Eight-week-old Balb/c male mice were purchased from Koatech Co. (Pyeongtaek, Republic of Korea) and maintained in for 7 days in order to adapt to the environment. The experimental protocol was approved by the Animal Care and Use Committee of Korea Research Institute of Bioscience and Biotechnology Institution (KRIBB-AEC-17146) and performed in accordance with the National Institutes of Health Guidelines for the care and use of laboratory animals and with the Korean national laws for animal welfare. The mice were randomized initially into two experimental groups as follows: Non-treated group as a control; STZ treated group. STZ treated groups received an intraperitoneal injection of 200 mg/kg BW STZ, which was dissolved in citrate buffer (pH 4.5), while the animals belonging to the control group received vehicle injection. The next day following STZ administration, the induction of diabetes in all STZ-treated mice was confirmed the glucose level in blood by a glucometer (ACCU-CHEK, Roche diagnostics Inc., Seoul, Korea). All mice with blood glucose levels higher than 200 mg/dL in fasting state were considered acute diabetes. After the confirmation of the induction of diabetes, the mice of the experimental group were further randomized into three groups: STZ alone treated group; high dose of PLAG treated group; a low dose of PLAG treated group. PLAG was injected into mice for 3 days. Control and STZ alone treated groups were administrated orally to mice with the same PBS for 3 days. Following sacrifice, LPL activity was measured in plasma using a quantitative LPL activity assay kit (Cell Biolabs, Inc, San Diego, Calif.). Diluted samples and standards were loaded to the fluorescence microtiter plate, and LPL fluorometric substrate was added. After 30 minutes, the reaction stopped by stopping the solution. After 15 minutes, the sample fluorescence measured by a fluorescence microplate reader. The relative amounts of Apolipoprotein B48 (ApoB48) of portal vein plasma were evaluated by western blot analysis. […] The protein extracts were immunoblotted with the ApoB48 antibody (Abcam, MA, USA). Eight-week-old Balb/c male mice were purchased from Koatech Co. (Pyeongtaek, Republic of Korea) and maintained in for 7 days in order to adapt to the environment. The experimental protocol was approved by the Animal Care and Use Committee of Korea Research Institute of Bioscience and Biotechnology Institution (KRIBB-AEC-17146) and performed in accordance with the National Institutes of Health Guidelines for the care and use of laboratory animals and with the Korean national laws for animal welfare. The mice were randomized initially into 2 experimental groups as follows: Non-treated group as a control; STZ treated group. STZ treated groups received an intraperitoneal injection of 200 mg/kg BW STZ, which was dissolved in citrate buffer (pH 4.5), while the animals belonging to the control group received vehicle injection. The next day following STZ administration, the induction of diabetes in all STZ-treated mice was confirmed the glucose level in blood by a glucometer (ACCU-CHEK, Roche diagnostics Inc., Seoul, Korea). All mice with blood glucose levels higher than 200 mg/dL in fasting state were considered acute diabetes. After the confirmation of the induction of diabetes, the mice of the experimental group were further randomized into three groups: STZ alone treated group; high dose of PLAG treated group; a low dose of PLAG treated group. One day after STZ injection, mice were orally injected with PLAG for 3 days (FIG. 31A). The dosage and preparation of PLAG were determined according to previous reports. Control and STZ alone treated groups were administrated orally with the same PBS for 3 days. The experiments were carried out according to the methods mentioned above. […] Total RNA was isolated from the muscle of individual mice using TRIzol reagent (Favorgen Biotech, Taiwan). […]

CCCCC/C=C\C/C=C\CCCCCCCC(=O)OC(COC(C)=O)COC(=O)CCCCCCCCCCCCCCC (racemic) [PLAG, 1-palmitoyl-2-linoleoyl-3-acetylglycerol]
bacterial clearance of PAK in BALF [1]: showed the bacterial clearance activity; also recorded: effectively eliminated | STZ-induced empty fat vacuoles in liver (H&E) ([2]; 250 mg/kg vs 50 mg/kg): decreased STZ-induced empty fat vacuoles more effectively than 50 mg/kg | plasma LPL activity ([2]; STZ 200 mg/kg, PLAG 3 days): recovered | muscle TG content ([2]; STZ/PLAG treated group): recovered | body weight versus STZ treated mice [2]: less body weight loss | hepatic steatosis / liver damage (histology) [2]: attenuated | ApoB48 level in portal vein blood ([2]; dose-dependent): markedly reduced

CCCCC/C=C\C/C=C\CCCCCCCC(=O)OC(CO)COC(=O)CCCCCCCCCCCCCCC (stereo not shown) [PLH, palmitic linoleic hydroxyl glycerol, reference compound]
bacterial clearance of PAK in BALF [1]: didn't; also recorded: did not | body weight versus STZ treated mice [2]: no difference | hepatic steatosis / liver damage (histology) [2]: not altered
